The target in data set [1] is T1, Sex hormone-binding globulin (SHBG) (Homo sapiens, UniProt P04278).
T1 sequence (P04278 30-402): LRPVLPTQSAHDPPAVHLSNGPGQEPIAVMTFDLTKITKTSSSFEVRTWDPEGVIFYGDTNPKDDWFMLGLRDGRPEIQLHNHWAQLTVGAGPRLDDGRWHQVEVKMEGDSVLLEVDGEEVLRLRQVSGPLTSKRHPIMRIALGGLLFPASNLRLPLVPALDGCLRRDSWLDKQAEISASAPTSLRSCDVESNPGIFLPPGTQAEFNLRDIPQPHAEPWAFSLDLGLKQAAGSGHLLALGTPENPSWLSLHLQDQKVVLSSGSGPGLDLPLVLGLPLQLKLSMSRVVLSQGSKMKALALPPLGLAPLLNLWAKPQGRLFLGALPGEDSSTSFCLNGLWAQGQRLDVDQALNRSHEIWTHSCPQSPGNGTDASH
As to conditions: SHBG vs albumin; cited from earlier work.

A further data set deals with plasma proteins. The conditions noted are these: in circulation; cited from earlier work.
Data set [2] is described as follows: Sample stability of testosterone in sample pools. In kind it is physicochemical, human. The conditions noted are these: testosterone in samples. An excerpt: A blood serum sample is collected from a human patient. The serum is first de-proteinated using a 10% formic acid solution or a 1% trichloroacetic acid solution (in methanol). The deproteination also acts to release testosterone from SHBG, albumin, and other binding proteins. In other embodiments proteins can be removed from the blood with other acids such as a solution of 1% trichloroacetic acid in methanol.
To understand the stability of testosterone in samples, two levels of sample pool were subjected to the following conditions:
Freeze/Thaw: 1, 2, 3, 4, and 5 cycles.
Refrigerated (2-8° C.): 0, 1, 2, 4, 7, and 14 days.
Duplicate runs of samples were run on two separate days.

In the case of `C[C@]12CC[C@H]3[C@@H](CCC4=CC(=O)CC[C@@]43C)[C@@H]1CC[C@@H]2O` [Testosterone, 4 androsten 17β-ol-3-one], the “binding capacity of SHBG for testosterone relative to that of albumin” value in data set [1] is “approximately 30,000 times”. Moreover, the “testosterone circulating unbound to plasma proteins” value in the data set on plasma proteins was “Less than 2.5%”. The Stability entry in data set [2] (Freeze Thaw Cycles, with no effect) is “Up to 5 with no effect Cycles”; in data set [2] (Refrigerated (0°-8° C.)) it was 7 days; in data set [2] (Room Temp (18-25° C.)), 4 days.

The values are drawn from patent US8329392B2, “Determination of testosterone by mass spectrometry” (Quest Diagnostics Investments Incorporated, priority 2003, dated 2012).
